According to paper PMC9516332 (Frontiers in Oncology, 2022):
Where two headings read alike, the source gives them in different places.

Tests used:
134 cancer cell lines [1] = experiment: Cell viability assay (ATPlite, 72 hours), IC50 on cancer cell line panel
AP-1060 (ETV6-NTRK3) = experiment: Cell viability assay; details: read-out: IC50 in cell proliferation assay
134 cancer cell lines [2] = test system: 134 cancer cell lines

For CC(=O)Nc1cccc(-n2c(=O)n(C3CC3)c(=O)c3c(Nc4ccc(I)cc4F)n(C)c(=O)c(C)c32)c1 [trametinib], the IC50 (134 cancer cell lines [1]; Homo sapiens, MeWo, read-out: IC50 in cell proliferation assay, MeWo cell line) was 36 nM, the IC50 (134 cancer cell lines [1]; Homo sapiens, NCCIT, read-out: IC50 in cell proliferation assay, NCC-IT cell line) was 871 nM and the IC50 (134 cancer cell lines [1]; Homo sapiens, NCI-H82, read-out: IC50 in cell proliferation assay, cell line NCI-H82) was > 28200 nM. For the same compound, the IC50 (134 cancer cell lines [1]; Homo sapiens, NCI-H460, read-out: IC50 in cell proliferation assay, NCI-H460 cell line) was 33 nM, the IC50 (134 cancer cell lines [1]; Homo sapiens, NCI-H661, read-out: IC50 in cell proliferation assay, NCI-H661 cell line) was > 28200 nM and the IC50 (134 cancer cell lines [1]; Homo sapiens, NCI-H716, read-out: IC50 in cell proliferation assay, cell line NCI-H716 (FGFR2-COL14A1)) was 34 nM. The IC50 (134 cancer cell lines [1]; Homo sapiens, NCI-H1650, read-out: IC50 in cell proliferation assay, NCI-H1650 cell line (EGFR exon19del)) was 75 nM, the IC50 (134 cancer cell lines [1]; Homo sapiens, NCI-H1975, read-out: IC50 in cell proliferation assay, NCI-H1975 cell line (EGFR p.L858R + p.T790M)) was 85 nM and the IC50 (134 cancer cell lines [1]; Homo sapiens, NCI-H2228, read-out: IC50 in cell proliferation assay, NCI-H2228 cell line (EML4-ALK)) was 265 nM. The IC50 (134 cancer cell lines [1]; Homo sapiens, OVCAR-3, read-out: IC50 in cell proliferation assay, cell line OVCAR-3) was > 28200 nM, the IC50 (134 cancer cell lines [1]; Homo sapiens, PFSK-1, read-out: IC50 in cell proliferation assay, cell line PFSK-1) was > 28200 nM and the IC50 (134 cancer cell lines [1]; Homo sapiens, RL95-2, read-out: IC50 in cell proliferation assay, cell line RL95-2 (EGFR p.A289V)) was 1.55 nM. For the same compound, the IC50 (134 cancer cell lines [1]; Homo sapiens, RPMI-7951, read-out: IC50 in cell proliferation assay, cell line RPMI-7951 (BRAF p.V600E)) was 17 nM, the IC50 (134 cancer cell lines [1]; Homo sapiens, RS4-11, read-out: IC50 in cell proliferation assay, cell line RS4;11) was > 28200 nM and the IC50 (134 cancer cell lines [1]; Homo sapiens, Rec1, read-out: IC50 in cell proliferation assay, cell line REC-1) was 12300 nM. The IC50 (134 cancer cell lines [1]; Homo sapiens, SHP77, read-out: IC50 in cell proliferation assay, cell line SHP-77) was > 28200 nM, the IC50 (134 cancer cell lines [1]; Homo sapiens, SK-BR-3, read-out: IC50 in cell proliferation assay, cell line SK-BR-3 (ERBB2 amplification)) was > 31600 nM and the IC50 (134 cancer cell lines [1]; Homo sapiens, SK-N-AS, read-out: IC50 in cell proliferation assay, cell line SK-N-AS) was 4 nM. The IC50 (134 cancer cell lines [1]; Homo sapiens, SK-N-FI, read-out: IC50 in cell proliferation assay, cell line SK-N-FI) was 34 nM, the IC50 (134 cancer cell lines [1]; Homo sapiens, SK-N-MC, read-out: IC50 in cell proliferation assay, cell line SK-N-MC) was > 31600 nM and the IC50 (134 cancer cell lines [1]; Homo sapiens, SK-N-SH, read-out: IC50 in cell proliferation assay, cell line SK-N-SH (ALK p.F1174L)) was 17 nM. For the same compound, the IC50 (134 cancer cell lines [1]; Homo sapiens, SNU-5, read-out: IC50 in cell proliferation assay, cell line SNU-5 (MET amplification)) was 12 nM, the IC50 (134 cancer cell lines [1]; Homo sapiens, SNU-16, read-out: IC50 in cell proliferation assay, cell line SNU-16 (FGFR2 amplification)) was 146 nM and the IC50 (134 cancer cell lines [1]; Homo sapiens, SNU-C2B, read-out: IC50 in cell proliferation assay, cell line SNU-C2B (EGFR p.R165Q)) was 41 nM. For the same compound, the IC50 (134 cancer cell lines [1]; Homo sapiens, SU-DHL-1, read-out: IC50 in cell proliferation assay, cell line SU-DHL-1 (NPM1-ALK)) was 279 nM, the IC50 (134 cancer cell lines [1]; Homo sapiens, SU-DHL-6, read-out: IC50 in cell proliferation assay, cell line SU-DHL-6) was 27 nM and the IC50 (134 cancer cell lines [1]; Homo sapiens, SUP-T1, read-out: IC50 in cell proliferation assay, cell line SUP-T1) was > 28200 nM. The IC50 (134 cancer cell lines [1]; Homo sapiens, SW48, read-out: IC50 in cell proliferation assay, cell line SW48 (EGFR p.G719S)) was 6 nM, the IC50 (134 cancer cell lines [1]; Homo sapiens, SW480, read-out: IC50 in cell proliferation assay, cell line SW480) was 230 nM and the IC50 (134 cancer cell lines [1]; Homo sapiens, SW626, read-out: IC50 in cell proliferation assay, cell line SW626) was 59 nM. The IC50 (134 cancer cell lines [1]; Homo sapiens, SW780, read-out: IC50 in cell proliferation assay, cell line SW780 (FGFR3-BAIAP2L1)) was 20 nM, the IC50 (134 cancer cell lines [1]; Homo sapiens, SW837, read-out: IC50 in cell proliferation assay, cell line SW837) was 98 nM and the IC50 (134 cancer cell lines [1]; Homo sapiens, SW872, read-out: IC50 in cell proliferation assay, cell line SW872 (BRAF p.V600E)) was 23 nM. It also gave an IC50 (134 cancer cell lines [1]; Homo sapiens, SW900, read-out: IC50 in cell proliferation assay, cell line SW900) of 111 nM, an IC50 (134 cancer cell lines [1]; Homo sapiens, SW948, read-out: IC50 in cell proliferation assay, cell line SW948) of 26 nM and an IC50 (134 cancer cell lines [1]; Homo sapiens, SW982, read-out: IC50 in cell proliferation assay, cell line SW982 (BRAF p.V600E)) of 929 nM. For the same compound, the IC50 (134 cancer cell lines [1]; Homo sapiens, SW-620, read-out: IC50 in cell proliferation assay, cell line SW620) was 17 nM, the IC50 (134 cancer cell lines [1]; Homo sapiens, T98G, read-out: IC50 in cell proliferation assay, cell line T98G) was > 28200 nM and the IC50 (134 cancer cell lines [1]; Homo sapiens, TCC-SUP, read-out: IC50 in cell proliferation assay, cell line TCCSUP) was 1450 nM. For the same compound, the IC50 (134 cancer cell lines [1]; Homo sapiens, THP-1, read-out: IC50 in cell proliferation assay, cell line THP-1) was 1 nM, the IC50 (134 cancer cell lines [1]; Homo sapiens, U2OS, read-out: IC50 in cell proliferation assay, cell line U2OS) was 4 nM and the IC50 (134 cancer cell lines [1]; Homo sapiens, U-87 MG, read-out: IC50 in cell proliferation assay, cell line U-87MG ATCC) was 245 nM. It also gave an IC50 (134 cancer cell lines [1]; Homo sapiens, U-118-MG, read-out: IC50 in cell proliferation assay, cell line U-118MG) of 151 nM, an IC50 (134 cancer cell lines [1]; Homo sapiens, UMUC3, read-out: IC50 in cell proliferation assay, cell line UM-UC-3) of 21 nM and an IC50 (134 cancer cell lines [1]; Hs766T, read-out: IC50 in cell proliferation assay, Hs 766T cell line) of 2.34 nM. The IC50 (134 cancer cell lines [1]; L-82, read-out: IC50 in cell proliferation assay, L-82 cell line (NPM1-ALK)) was 86 nM, the IC50 (134 cancer cell lines [1]; Rh30, read-out: IC50 in cell proliferation assay, cell line Rh30) was 237 nM and the IC50 (134 cancer cell lines [1]; read-out: IC50 in cell proliferation assay, 11-18 cell line (EGFR p.L858R)) was > 31600 nM. For the same compound, the IC50 (134 cancer cell lines [1]; read-out: IC50 in cell proliferation assay, Hs 852.T cell line) was 218 nM, the IC50 (134 cancer cell lines [1]; read-out: IC50 in cell proliferation assay, JAR cell line) was > 28200 nM and the IC50 (134 cancer cell lines [1]; read-out: IC50 in cell proliferation assay, cell line 5637) was 297 nM. The IC50 (134 cancer cell lines [1]; read-out: IC50 in cell proliferation assay, cell line A-388) was 99 nM, the IC50 (134 cancer cell lines [1]; read-out: IC50 in cell proliferation assay, cell line DB) was 18900 nM and the IC50 (134 cancer cell lines [1]; read-out: IC50 in cell proliferation assay, cell line DEL (NPM1-ALK)) was > 31600 nM. The IC50 (134 cancer cell lines [1]; read-out: IC50 in cell proliferation assay, cell line ES-2 (BRAF p.V600E)) was 7 nM, the IC50 (134 cancer cell lines [1]; read-out: IC50 in cell proliferation assay, cell line PA-1) was 666 nM and the IC50 (134 cancer cell lines [1]; read-out: IC50 in cell proliferation assay, cell line PC-3) was > 28200 nM. The IC50 (134 cancer cell lines [1]; read-out: IC50 in cell proliferation assay, cell line RD) was 4 nM, the IC50 (134 cancer cell lines [1]; read-out: IC50 in cell proliferation assay, cell line RKO (BRAF p.V600E)) was 8 nM and the IC50 (134 cancer cell lines [1]; read-out: IC50 in cell proliferation assay, cell line RL) was > 28200 nM. The IC50 (134 cancer cell lines [1]; read-out: IC50 in cell proliferation assay, cell line RT-4 (FGFR3-TACC3)) was 72 nM, the IC50 (134 cancer cell lines [1]; read-out: IC50 in cell proliferation assay, cell line SR (NPM1-ALK)) was 936 nM and the IC50 (134 cancer cell lines [1]; read-out: IC50 in cell proliferation assay, cell line T24) was 5 nM. For the same compound, the IC50 (134 cancer cell lines [1]; read-out: IC50 in cell proliferation assay, cell line TT (RET p.C634W)) was 1050 nM, the IC50 (134 cancer cell lines [1]; read-out: IC50 in cell proliferation assay, cell line VA-ES-BJ) was 89 nM and the IC50 (AP-1060 (ETV6-NTRK3)) was 291 nM. The IC50 (134 cancer cell lines [2]) was 76 nM.
